We go through seven compounds from paper PMC6982861, “Synthesis, Structural Characterization, and Biological Activity of New Pyrazolo[4,3-e][1,2,4]triazine Acyclonucleosides” (Molecules, 2020).

In assay [1] the target is T1, (Homo sapiens, UniProt P00519).
T1 construct: gene ABL1; Abl kinase
The experiment in a line: […] kinase assay, P-81 phosphocellulose. The format is biochemical.

The nature of assay [2]: […] kinase assay, P-81 phosphocellulose. The format is biochemical, Homo sapiens. Particulars: read-out: MTT Assay ^a, IC50 (μM) / K-562.
For the next assay, the target named is T2, CDK2/Cyclin E (Homo sapiens, UniProt P24941).
T2 construct: kinase complex; with G1/S-specific cyclin-E1
Nature of the assay: […] kinase assay, P-81 phosphocellulose. The format is biochemical.

Where [3] appears, read: read-out: MTT Assay ^a, IC50 (μM) / K-562.

Like-named read-outs stand apart in the source and are kept apart here.

T1 sequence (P00519 whole entry): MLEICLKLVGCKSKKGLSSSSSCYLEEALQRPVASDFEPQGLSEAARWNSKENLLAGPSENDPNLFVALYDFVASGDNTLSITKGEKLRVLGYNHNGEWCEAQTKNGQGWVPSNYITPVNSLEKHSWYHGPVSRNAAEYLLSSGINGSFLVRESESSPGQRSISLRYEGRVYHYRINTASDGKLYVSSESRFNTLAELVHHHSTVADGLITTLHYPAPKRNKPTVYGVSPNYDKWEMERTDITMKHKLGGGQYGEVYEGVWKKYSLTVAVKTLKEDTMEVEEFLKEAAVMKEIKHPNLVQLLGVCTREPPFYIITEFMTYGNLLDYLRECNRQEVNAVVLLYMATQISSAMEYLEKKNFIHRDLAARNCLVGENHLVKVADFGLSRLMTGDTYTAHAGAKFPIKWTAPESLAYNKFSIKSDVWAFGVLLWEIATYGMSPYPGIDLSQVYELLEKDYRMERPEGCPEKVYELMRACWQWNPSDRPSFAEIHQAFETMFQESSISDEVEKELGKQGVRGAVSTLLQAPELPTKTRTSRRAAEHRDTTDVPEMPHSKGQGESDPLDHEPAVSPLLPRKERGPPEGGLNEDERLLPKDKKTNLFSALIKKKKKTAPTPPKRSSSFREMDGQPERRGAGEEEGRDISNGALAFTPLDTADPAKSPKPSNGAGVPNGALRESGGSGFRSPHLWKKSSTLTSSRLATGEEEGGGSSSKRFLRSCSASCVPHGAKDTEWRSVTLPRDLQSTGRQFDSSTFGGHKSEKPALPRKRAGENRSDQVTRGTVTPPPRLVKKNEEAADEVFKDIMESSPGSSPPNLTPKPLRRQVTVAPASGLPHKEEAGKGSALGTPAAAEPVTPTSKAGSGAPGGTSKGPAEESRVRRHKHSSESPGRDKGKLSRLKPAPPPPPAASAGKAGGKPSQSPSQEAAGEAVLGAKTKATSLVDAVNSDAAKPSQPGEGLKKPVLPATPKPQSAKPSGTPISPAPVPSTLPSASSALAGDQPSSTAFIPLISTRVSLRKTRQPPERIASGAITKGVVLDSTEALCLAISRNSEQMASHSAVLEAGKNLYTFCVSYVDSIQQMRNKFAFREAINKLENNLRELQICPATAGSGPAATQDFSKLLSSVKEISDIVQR

Take `CSc1nnc2[nH]nc(C)c2n1` [compound 1, 3-methyl-5-methylsulfanyl-1H-pyrazolo[4,3-e][1,2,4]triazine]: the IC50 in assay [1] (setting [3]) and in assay [2] was above 100 µM each time.

For the compound `CSc1nnc2c(n1)c(C)nn2CCO` [compound 2, 1-(2-hydroxyethyl)-3-methyl–5-methylsulfanyl-1H-pyrazolo[4,3-e][1,2,4]triazine], the IC50 in assay [1] (setting [3]) and in assay [2] was above 100 µM each time.

Take `CSc1nnc2nn(CCO)c(C)c2n1` [compound 3, 2-(2-hydroxyethyl)-3-methyl-5-methylsulfanyl-2H-pyrazolo[4,3-e][1,2,4]triazine]: the IC50 in assay [1] (setting [3]) and in assay [2] was above 100 µM throughout.

In the case of `CSc1nnc2c(n1)c(C)nn2CC(O)CO` (centres unmarked) [compound 4, 1-(2,3-dihydroxypropyl)-3-methyl–5-methylsulfanyl-1H-pyrazolo[4,3-e][1,2,4]triazine], the IC50 in assay [1] (setting [3]) and in assay [2] was above 100 µM throughout.

With `CSc1nnc2c(n1)c(C)nn2CCBr` [compound 6, 1-(2-bromoethyl)-3-methyl-5-methylsulfanyl-1H-pyrazolo[4,3-e][1,2,4]triazine], the IC50 in assay [1] (setting [3]) and in assay [2] was above 100 µM each time.

For the compound `CCOC(=O)C(CCn1nc(C)c2nc(SC)nnc21)C(=O)OCC` [compound 7, 1-(ethyl 2-carboethoxybutanoate-4-yl)-3-methyl-5-methylsulfanyl-1H-pyrazolo[4,3-e][1,2,4]triazine], the IC50 (in assay [1] (read-out: IC50 (μM) ^a / CDK2/Cyclin E); against CDK2/Cyclin E) was above 50 µM each time.

In the case of `CSc1nnc2c(n1)c(C)nn2CCC(CO)CO` [compound 8, 1-[(4-hydroxy-3-hydroxymethyl)butyl]-3-methyl-5-methylsufanyl-1H-pyrazolo[4,3-e][1,2,4]triazine], the IC50 in assay [1] (setting [3]) and in assay [2] was above 100 µM in each case.
